Key:
Glutamate receptor 3 = Glutamate receptor 3 (Rattus norvegicus, UniProt P19492)
[1] = biological target: Glutamate receptor ionotropic, NMDA 1 (Rattus norvegicus, UniProt P35439)
[2] = biological target: Glutamate receptor ionotropic, kainate 1 (Rattus norvegicus, UniProt P22756)
Chain of Glutamate receptor ionotropic, kainate 1 (P22756 whole entry): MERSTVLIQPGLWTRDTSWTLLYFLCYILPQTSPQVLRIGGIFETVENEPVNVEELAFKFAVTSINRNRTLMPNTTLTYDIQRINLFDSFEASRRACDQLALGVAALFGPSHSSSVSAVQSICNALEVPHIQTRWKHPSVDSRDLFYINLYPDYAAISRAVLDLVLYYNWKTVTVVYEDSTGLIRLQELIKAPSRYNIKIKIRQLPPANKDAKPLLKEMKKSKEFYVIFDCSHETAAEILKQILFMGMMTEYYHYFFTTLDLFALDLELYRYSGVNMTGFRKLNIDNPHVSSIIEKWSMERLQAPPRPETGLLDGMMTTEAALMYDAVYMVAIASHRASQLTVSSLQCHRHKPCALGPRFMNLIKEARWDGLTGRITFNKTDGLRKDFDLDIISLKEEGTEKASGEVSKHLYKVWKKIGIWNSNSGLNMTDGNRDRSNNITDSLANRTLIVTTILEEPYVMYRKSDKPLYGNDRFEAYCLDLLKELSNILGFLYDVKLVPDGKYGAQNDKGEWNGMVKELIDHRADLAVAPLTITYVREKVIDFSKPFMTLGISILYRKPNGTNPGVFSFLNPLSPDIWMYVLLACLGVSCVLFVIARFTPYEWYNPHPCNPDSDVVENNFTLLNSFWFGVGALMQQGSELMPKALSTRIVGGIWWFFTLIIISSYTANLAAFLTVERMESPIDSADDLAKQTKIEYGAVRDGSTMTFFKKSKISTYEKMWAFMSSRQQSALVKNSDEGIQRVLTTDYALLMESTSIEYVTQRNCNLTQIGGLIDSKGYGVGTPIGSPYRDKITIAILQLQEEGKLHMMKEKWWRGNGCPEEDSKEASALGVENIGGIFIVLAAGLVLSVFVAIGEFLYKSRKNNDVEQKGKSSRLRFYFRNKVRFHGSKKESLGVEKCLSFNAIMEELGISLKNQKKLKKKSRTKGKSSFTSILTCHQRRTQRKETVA

Chain of Glutamate receptor 3 (P19492 whole entry): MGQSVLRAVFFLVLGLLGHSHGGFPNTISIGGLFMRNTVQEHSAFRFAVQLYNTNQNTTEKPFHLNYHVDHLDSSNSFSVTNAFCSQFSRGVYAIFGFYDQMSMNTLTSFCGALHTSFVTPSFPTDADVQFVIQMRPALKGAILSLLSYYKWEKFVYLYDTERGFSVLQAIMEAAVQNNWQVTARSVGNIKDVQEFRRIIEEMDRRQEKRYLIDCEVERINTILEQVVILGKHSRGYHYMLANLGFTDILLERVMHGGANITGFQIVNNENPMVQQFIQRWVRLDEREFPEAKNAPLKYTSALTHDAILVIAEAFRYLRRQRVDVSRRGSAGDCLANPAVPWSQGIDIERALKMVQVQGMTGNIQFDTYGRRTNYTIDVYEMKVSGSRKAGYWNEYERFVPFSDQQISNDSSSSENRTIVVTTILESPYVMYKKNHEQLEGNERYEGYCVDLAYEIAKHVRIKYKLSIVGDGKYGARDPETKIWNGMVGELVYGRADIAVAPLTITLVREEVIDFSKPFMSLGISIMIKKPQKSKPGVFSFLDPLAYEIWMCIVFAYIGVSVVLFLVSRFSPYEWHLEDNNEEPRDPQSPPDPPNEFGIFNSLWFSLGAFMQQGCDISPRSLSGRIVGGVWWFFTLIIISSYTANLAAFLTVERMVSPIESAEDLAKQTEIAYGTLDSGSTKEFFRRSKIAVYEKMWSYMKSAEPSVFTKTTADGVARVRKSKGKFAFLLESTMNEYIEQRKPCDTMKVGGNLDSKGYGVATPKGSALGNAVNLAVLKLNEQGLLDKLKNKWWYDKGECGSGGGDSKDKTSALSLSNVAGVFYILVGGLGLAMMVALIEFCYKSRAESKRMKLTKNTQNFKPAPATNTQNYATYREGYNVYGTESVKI

SMILES | Ki (Glutamate receptor 3) [µM] | Ki [1] [µM] | Ki [2] [µM]
CC(C)(C)c1onc(O)c1CC(N)C(=O)O (stereo not given) [NSC_2253] | > 10 | – | –
CC(C)(C)c1snc(O)c1CC(N)C(=O)O (stereo not given) [Thio-ATPA-S] | – | > 10 | > 10
CC(C)(C)c1o[nH]c(=O)c1C[C@@H](N)C(=O)O [ATPA-S] | 1.8 | – | –
CC(C)(C)c1o[nH]c(=O)c1C[C@H](N)C(=O)O [ATPA-R] | > 10 | – | –

Source: BindingDB's records for doi:10.1016/s0014-2999(00)00916-x (The Royal Danish School of Pharmacy, 2001)
